Here are results for one molecule from patent US7888042B2, “Methods for identifying insulin mimetics” (Ohio University, priority 2005, dated 2011).

In one data set the test system is db/db mice. Nature of the data set: Blood glucose in fasting db/db mice, oral dose. It counts as in vivo. The protocol: Either 6-8 week old male db/db mice or 8-12 week old male ob/ob mice were treated with aqueous solutions of α-PGG by either oral delivery (˜10 μL, A & B) or ip injection (˜50 μL, C, & D). (n=8-10, mean±SD, one-way ANOVA). α-PGG (●); vehicle (∘). α-PGG (20 mg/kg) was orally delivered without glucose to fasting db/db mice (A *, P<0.02; **, P<0.01; ***, P<0.001) or with glucose (0.4 g/kg body weight) to fasting ob/ob mice (B, glucose tolerance test). α-PGG (20 mg/kg) was ip injected into ob/ob mice on day 0 and day 4 (C). A single ip injection (20 mg/kg) of α-PGG was administered to ob/ob mice (D). Glucose (A, B, C) or insulin (D) was determined from sera or plasma isolated from tail vein blood. Animal studies. Genetically diabetic db/db mice or obese ob/ob mice were purchased from Jackson Lab. Male mice of 2-3 months of age were used. Unless otherwise stated, 10 mice (N=10) were used per group. α-PGG was either orally administered or intraperitoneally (ip) injected in the form of an aqueous solution at 20 mg/kg body weight with a 1-cc sterile plastic syringe. At different times after the α-PGG administration, blood or plasma was collected from the tail vein for measurement of glucose and insulin concentrations using commercial kits. Vehicle (aqueous solution) treated mice were used as controls and were statistically compared with the α-PGG treated mice. All animal studies were conducted in accord with the Ohio University guidelines for the use and care of laboratory animals.

For a further data set, the target named is T1, α-subunit of IR (Mus musculus, UniProt P15208).
T1 construct: endogenous in cells; host or cells: 3T3-L1 adipocytes (ATCC)
T1 sequence (P15208 28-748 limits assumed): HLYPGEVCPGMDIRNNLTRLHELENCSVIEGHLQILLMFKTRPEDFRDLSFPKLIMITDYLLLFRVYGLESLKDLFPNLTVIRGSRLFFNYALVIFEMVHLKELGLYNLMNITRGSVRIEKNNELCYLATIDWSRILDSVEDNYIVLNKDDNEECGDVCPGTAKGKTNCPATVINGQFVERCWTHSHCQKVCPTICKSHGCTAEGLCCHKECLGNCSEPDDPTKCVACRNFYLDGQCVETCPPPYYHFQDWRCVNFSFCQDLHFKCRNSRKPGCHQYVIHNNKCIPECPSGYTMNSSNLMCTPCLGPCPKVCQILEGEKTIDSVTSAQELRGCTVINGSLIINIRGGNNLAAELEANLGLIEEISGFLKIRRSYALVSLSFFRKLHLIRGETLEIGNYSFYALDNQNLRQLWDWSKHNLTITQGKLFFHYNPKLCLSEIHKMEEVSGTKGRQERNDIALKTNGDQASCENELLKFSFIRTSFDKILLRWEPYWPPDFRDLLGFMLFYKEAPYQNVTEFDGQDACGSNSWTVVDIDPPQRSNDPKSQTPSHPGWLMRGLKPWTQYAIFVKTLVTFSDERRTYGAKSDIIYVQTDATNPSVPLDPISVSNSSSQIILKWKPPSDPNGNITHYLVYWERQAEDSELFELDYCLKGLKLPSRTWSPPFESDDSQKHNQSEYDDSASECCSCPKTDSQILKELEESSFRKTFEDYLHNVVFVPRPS
T1 sequence (P15208 753-1372 partner limits assumed): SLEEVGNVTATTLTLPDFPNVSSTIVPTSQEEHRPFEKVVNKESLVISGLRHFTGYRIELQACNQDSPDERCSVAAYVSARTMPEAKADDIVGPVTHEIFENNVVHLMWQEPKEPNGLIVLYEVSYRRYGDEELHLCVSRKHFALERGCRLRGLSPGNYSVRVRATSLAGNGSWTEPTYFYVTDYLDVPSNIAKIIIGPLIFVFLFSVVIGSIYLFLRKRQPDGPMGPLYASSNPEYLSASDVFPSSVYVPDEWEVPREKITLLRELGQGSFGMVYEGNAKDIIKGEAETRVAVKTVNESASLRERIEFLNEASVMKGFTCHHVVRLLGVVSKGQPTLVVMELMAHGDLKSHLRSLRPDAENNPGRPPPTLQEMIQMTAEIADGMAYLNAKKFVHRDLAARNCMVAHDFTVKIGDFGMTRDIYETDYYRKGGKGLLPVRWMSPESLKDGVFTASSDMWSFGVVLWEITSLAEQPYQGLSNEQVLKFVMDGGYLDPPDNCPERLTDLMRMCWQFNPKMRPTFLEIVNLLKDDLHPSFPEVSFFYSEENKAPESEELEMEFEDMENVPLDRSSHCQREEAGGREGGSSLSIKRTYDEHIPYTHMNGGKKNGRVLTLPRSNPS
Nature of the data set: Cross-linking with Sulfo-SANPAH and Western blot with anti-IR α-subunit antibody. Conditions: adipocytes, 200 μM, Sulfo-SANPAH, UV. It counts as cell-based. As to the method:
(A) α-PGG binds to IR as measured by a SPR (28). Increasing concentrations of α-PGG was injected into the system to interact with the pure IR attached to the gold surface of the biosensor chip. The binding, represented in arbitrary response units, was automatically plotted against α-PGG concentrations to generate the binding curve. (B) Insulin binding to IR in the absence or presence of α-PGG. Increasing amounts of ^125I-labeled insulin were added to WGA-coated wells containing pre-bound IR isolated from CHO-IR cells in the absence of α-PGG or in the presence of 30 μM or 50 μM of α-PGG. After overnight incubation, removal of excessive ligands, and washing, the bound radioactive insulin was measured. (C) Insulin displacement by α-PGG. Fixed amounts of radioactive insulin (1 nM) were added to each of the WGA-coated wells pre-bound with IR. Increasing amounts of α-PGG were added to the wells to displace the ^125I-labeled insulin. […]
For the cross-linking reaction, sulfosuccinimidyl-6-(4′-azido-2′-nitrophenylamino) hexanoate (Sulfo-SANPAH), a photoactive, non-cleavable cross-linker (31, 32) purchased from Pierce was used to cross link β-PGG to plasma membrane proteins that it interacts with. […] Cells were lysed and the total cell protein was isolated and separated on an 8% reducing SDS-PAGE, transferred to a nylon membrane, and analyzed with an anti-IR α-subunit antibody.
On the technique in general: A western blot detects proteins with antibodies after separation by electrophoresis.

In another data set the target is insulin (Bos taurus, UniProt P01317). Nature of the data set: Binding of α-PGG to insulin.
Sequence of insulin (P01317 25-54 limits assumed): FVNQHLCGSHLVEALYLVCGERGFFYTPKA
Another data set has as its system GLUT4. Nature of the data set: GLUT4 translocation, confocal microscopy. It counts as cell-based. Conditions: adipocytes, 37° C., 15 min. As to the method: (A) Glucose transport was measured by determining [^3H]-2-deoxyglucose uptake stimulated by either insulin or α-PGG in 3T3-L1 cells in the presence or absence of HNMPA-(AM)3, an inhibitor of IR tyrosine kinase activity (24); wortmannin, an inhibitor of PI 3-kinase (25), or cytochalasin B, an inhibitor of GLUT4 (26), (n=4, mean±SD). (B) Cells were induced by 20 or 40 μM α-PGG or 100 nM insulin for 15 min. Cell lysates were separated by PAGE and analyzed for phosphorylation of IR (in CHO-IR cells) or Akt (in adipocytes) using antibodies specific to the target proteins. (C) Cells were treated with α-PGG and insulin in a fashion similar to (B) and assayed for their respective PI-3 kinase activity with a radioactive TLC method (27). (D) In similar experiments, intact cells were analyzed by confocal microscopy for translocation of GLUT4 using anti-GLUT4 antibodies.
Protein phosphorylation/activation and GLUT4 translocation. To investigate signal transduction induced by α-PGG, proteins from 3T3-L1 adipocytes or CHO-IR cells (23), which were treated with α-PGG or insulin for 15 min, were isolated, separated by PAGE, blotted on nylon membranes, and analyzed by Western blotting with antibodies against either IR or Akt. […]

The nature of data set [1]: Body weight, food intake and physical activity of treated mice. It counts as in vivo. Particulars: treated mice vs control mice. As to the method: Animal studies. Genetically diabetic db/db mice or obese ob/ob mice were purchased from Jackson Lab. Male mice of 2-3 months of age were used. Unless otherwise stated, 10 mice (N=10) were used per group. α-PGG was either orally administered or intraperitoneally (ip) injected in the form of an aqueous solution at 20 mg/kg body weight with a 1-cc sterile plastic syringe. At different times after the α-PGG administration, blood or plasma was collected from the tail vein for measurement of glucose and insulin concentrations using commercial kits. Vehicle (aqueous solution) treated mice were used as controls and were statistically compared with the α-PGG treated mice. All animal studies were conducted in accord with the Ohio University guidelines for the use and care of laboratory animals.

Consider `O=C(OC[C@H]1O[C@H](OC(=O)c2cc(O)c(O)c(O)c2)[C@H](OC(=O)c2cc(O)c(O)c(O)c2)[C@@H](OC(=O)c2cc(O)c(O)c(O)c2)[C@@H]1OC(=O)c1cc(O)c(O)c(O)c1)c1cc(O)c(O)c(O)c1` [α-PGG, alpha 1,2,3,4,6-penta-O-galloyl-D-Glucopyranose], for which the “duration of blood glucose difference” value with db/db mice (oral 20 mg/kg) is “at least 5 hours”. Also, the “glucose level lower than control group” value in the data set with db/db mice (oral 20 mg/kg, 4 to 6 hours after treatment) is listed as “about 20%”. Besides, in the data set on db/db mice (single oral dose 20 mg/kg), the blood glucose levels entry is reported as “significantly decreased”. Besides, the “gel migration of IR α-subunit after cross-linking” value on α-subunit of IR was “Gel retardation of α-subunit of IR”. Moreover, at insulin, the binding to insulin result is “did not bind to insulin”. For the same molecule, the GLUT4 translocation entry with GLUT4 is recorded as “translocated to the plasma membrane”. In data set [1], the body weight result was “No significant changes”, the food intake result is on record as “No significant changes” and the physical activity result is given as “No significant changes”.
